Results published in the RepoRT retention time repository.

assay: RP, Thermo Scientific Hypersil GOLD, 200 × 2.1 mm, 1.9 µm, 40 °C, 0.4 mL/min, estimated dead time 1.1 min; A: water + 0.2% formic acid; B: acetonitrile; gradient (min/%B) 0/10 0.5/10 22/100 30/100 30.2/10 35/10; conditions: stereoisomer not certain

| LC retention time | Structure (SMILES) |
| --- | --- |
| 2.46 min | OCCc1ccc(O)c(O)c1 [hydroxytyrosol] |
| 7.75 min | O=c1cc(-c2ccc(O)c(O)c2)oc2cc(O)cc(O)c12 [luteolin] |
| 9.3 min | COc1ccc(C2CC(=O)c3c(O)cc(O)cc3O2)cc1O (centres undefined) [hesperetin] |
| 8.88 min | O=C1CC(c2ccc(O)cc2)Oc2cc(O)cc(O)c21 (centres undefined) [naringenin] |
| 2.41 min | O=C(O)c1ccc(O)c(O)c1 [protocatechuic acid] |
| 3.21 min | O=C(C=Cc1ccc(O)c(O)c1)OC1CC(O)(C(=O)O)CC(O)C1O (centres undefined) [chlorogenic acid] |
| 6.39 min | COc1ccc(C2CC(=O)c3c(O)cc(OC4OC(COC5OC(C)C(O)C(O)C5O)C(O)C(O)C4O)cc3O2)cc1O (centres undefined) [hesperetin 7-rutinoside] |
| 6.61 min | COc1ccc(C2CC(=O)c3c(O)cc(OC4OC(CO)C(O)C(O)C4OC4OC(C)C(O)C(O)C4O)cc3O2)cc1O (centres undefined) [hesperetin 7-O-neohesperidoside] |
| 12.2 min | O=C(C=Cc1ccc(O)c(O)c1)OCCc1ccccc1 [caffeic acid phenylethyl ester] |
| 1.6 min | O=C(O)c1cc(O)c(O)c(O)c1 [gallic acid] |
| 6.77 min | O=C(CCc1ccc(O)cc1)c1c(O)cc(O)cc1OC1OC(CO)C(O)C(O)C1O (centres undefined) [phloridzin] |
| 19.3 min | CC(C)C1=CC2=CCC3C(C)(C(=O)O)CCCC3(C)C2CC1 (centres undefined) [abietic acid] |
| 18.8 min | C=C(C)C1CCC2(C(=O)O)CCC3(C)C(CCC4C5(C)CCC(O)C(C)(C)C5CCC43C)C12 (centres undefined) [betulinic acid] |
| 19.2 min | CC1CCC2(C(=O)O)CCC3(C)C(=CCC4C5(C)CCC(O)C(C)(C)C5CCC43C)C2C1C (centres undefined) [ursolic acid] |
| 5.04 min | O=C(O)/C=C/c1ccc(O)cc1 [p-coumaric acid] |
| 16.6 min | CC1(C(=O)O)CCC2(C)CCC3(C)C(=CC(=O)C4C5(C)CCC(O)C(C)(C)C5CCC43C)C2C1 (stereo not drawn) [18beta-glycyrrhetinic acid] |

| LC retention time | Structure (SMILES) |
| --- | --- |
| 9.25 min | COc1cc(-c2oc3cc(O)cc(O)c3c(=O)c2O)ccc1O [isorhamnetin] |
| 6.25 min | O=c1c(O)c(-c2ccc(OC3OC(CO)C(O)C(O)C3O)c(O)c2)oc2cc(O)cc(O)c12 (centres undefined) [quercetin 4'-glucoside] |
| 5.64 min | CC1OC(OCC2OC(Oc3c(-c4ccc(O)cc4)oc4cc(O)cc(O)c4c3=O)C(O)C(O)C2O)C(O)C(O)C1O (centres undefined) [kaempferol 3-rutinoside] |
| 6.86 min | COc1cc(CC(CO)C(CO)Cc2ccc(O)c(OC)c2)ccc1O (centres undefined) [secoisolariciresinol] |
| 7.24 min | COc1cc(CC2COC(c3ccc(O)c(OC)c3)C2CO)ccc1O (centres undefined) [lariciresinol] |
| 4.21 min | O=C(C=Cc1ccc(O)cc1)OC1CC(O)(C(=O)O)CC(O)C1O (centres undefined) [p-coumarlyquinnic acid] |
| 12.7 min | CC1CCC2(C(=O)O)CCC3(C)C(=CCC4C5(C)CC(O)C(O)C(C)(CO)C5CCC43C)C2C1C (centres undefined) [asiatic acid] |
| 7.8 min | O=c1c(O)c(-c2ccc(O)c(O)c2)oc2cc(O)cc(O)c12 [quercetin] |
| 6.18 min | CC1OC(OC2C(Oc3cc(O)c4c(c3)OC(c3ccc(O)cc3)CC4=O)OC(CO)C(O)C2O)C(O)C(O)C1O (centres undefined) [naringenin 7-O-neohesperidoside] |
| 6.02 min | CC1OC(Oc2c(-c3ccc(O)c(O)c3)oc3cc(O)cc(O)c3c2=O)C(O)C(O)C1O (centres undefined) [quercetin 3-rhamnoside] |
| 3.86 min | COc1cc(-c2[o+]c3cc(O)cc(O)c3cc2OC2OC(CO)C(O)C(O)C2O)cc(OC)c1O (centres undefined) [malvidin 3-glucoside] |
| 9.01 min | O=c1c(O)c(-c2ccc(O)cc2)oc2cc(O)cc(O)c12 [kaempferol] |
| 7.05 min | CC=C1C(OC2OC(CO)C(O)C(O)C2O)OC=C(C(=O)OC)C1CC(=O)OCCc1ccc(O)c(O)c1 (centres undefined) [oleuropein] |
| 5.43 min | O=c1ccc2ccc(O)cc2o1 [7-hydroxycoumarin] |
| 5.07 min | CC1OC(OCC2OC(Oc3c(-c4ccc(O)c(O)c4)oc4cc(O)cc(O)c4c3=O)C(O)C(O)C2O)C(O)C(O)C1O (centres undefined) [quercetin 3-rutinoside] |

| Structure (SMILES) | LC retention time |
| --- | --- |
| CC1CCC2C(C)C3C(CC4C5CC=C6CC(OC7OC(CO)C(OC8OC(C)C(O)C(O)C8O)C(O)C7OC7OC(C)C(O)C(O)C7O)CCC6(C)C5CCC43C)N2C1 (stereo not drawn) [alpha-chaconine] | 7.97 min |
| CC1CCC2(NC1)OC1CC3C4CCC5CC(OC6OC(CO)C(OC7OC(CO)C(O)C(OC8OCC(O)C(O)C8O)C7OC7OC(CO)C(O)C(O)C7O)C(O)C6O)CCC5(C)C4CCC3(C)C1C2C (centres undefined) [tomatin] | 7.55 min |
| CC1CCC2C(C)C3C(CC4C5CC=C6CC(OC7OC(CO)C(O)C(OC8OC(CO)C(O)C(O)C8O)C7OC7OC(C)C(O)C(O)C7O)CCC6(C)C5CCC43C)N2C1 (stereo not drawn) [alpha-solanine] | 7.91 min |
